What follows are molecules tested on Colo205 cell line (assay: Colo205 cell proliferation assay (MTT assay, WST-8 readout)). Settings: Homo sapiens; IC50 values of growth inhibition in Colo 205 cells; 72 hours.
Format: cell-based
Method: Compounds disclosed herein were tested for the inhibition of ERK2 by a Colo205 cell proliferation assay commonly known as MTT assay. In this assay, a complete media was prepared by adding 10% fetal bovine serum to RPMI-1640 medium (Life technology). Colon cancer cells (Colo205 cell line) were added to each of 88 wells of a 96 well plate at a seeding density of 5,000 cells/well/90 μL. The cells were allowed to attach to the plate by incubating at 37° C. for 24 hours. The compound was dissolved in DMSO (SIGMA). A solution of test compound was prepared in complete media by serial dilution to obtain the following concentrations: 500 μM, 150 μM, 50 μM, 15 μM, 5 μM, 1.5 μM, 0.5 μM, 0.15 μM and 0.05 μM. The test compound solution (10 μL) was added to each of 80 cell-containing wells. The final concentrations of the compound were following: 50 μM, 15 μM, 5 μM, 1.5 μM, 0.5 μM, 0.15 μM, 0.05 μM, 0.015 μM and 0.005 μM. The final concentration of DMSO is 0.5%. To the 8 remaining cell-containing wells, only complete media (containing 0.5% DMSO) was added to form a control group in order to measure maximal proliferation. To the remaining 8 empty wells, complete media was added to for a vehicle control group in order to measure background. The plates were incubated at 37° C. for 72 hours. 10 μL WST-8 solution (DOJINDO, Cell Counting KIT-8) was added to each well. The plates were further incubated at 37° C. for 2 hours, and then read for the absorbance using a microplate reader at 450 nm.
The IC50 values of growth inhibition in Colo 205 cells for Compounds disclosed are listed in Table 3, A′: ≤0.5 μM; B′: >0.5 μM and ≤1 μM; C′: >1.0 μM and ≤5 uM; D′: >5 μM.

| Compound | IC50 |
| --- | --- |
| Cc1cc(-c2n[nH]c3ccc(-c4ccn([C@H](C)c5ccnc(C(F)(F)F)c5)c(=O)c4)cc23)ccn1 (single isomer, unassigned) [Example 142B] | ≤ 500 nM |
| Cc1cc(-c2n[nH]c3ccc(-c4ccn(CCN5CCOCC5)c(=O)c4)cc23)ccn1 [Example 54, 4-(3-(2-methylpyridin-4-yl)-1H-indazol-5-yl)-1-(2-morpholinoethyl)pyridin-2(1H)-one] | > 5000 nM |
| O=c1cc(-c2ccc3[nH]nc(-c4ccc(F)cn4)c3c2)ccn1[C@H](CO)c1cc(F)cc(Br)c1 [Example 125, (S)-1-(1-(3-bromo-5-fluorophenyl)-2-hydroxyethyl)-4-(3-(5-fluoropyridin-2-yl)-1H-indazol-5-yl)pyridin-2(1H)-one] | 500 to 1000 nM |
| O=c1cc(-c2ccc3[nH]nc(-c4ccnc(C(F)(F)F)c4)c3c2)ccn1Cc1ccnc(C(F)(F)F)c1 [Example 126, 4-(3-(2-(trifluoromethyl)pyridin-4-yl)-1H-indazol-5-yl)-1-((2-(trifluoromethyl)pyridin-4-yl)methyl)pyridin-2(1H)-one] | > 5000 nM |
| Cc1cc(Cn2ccc(-c3ccc4[nH]nc(-c5ccnc(C)c5)c4c3)cc2=O)ccn1 [Example 127, 4-(3-(2-methylpyridin-4-yl)-1H-indazol-5-yl)-1-((2-methylpyridin-4-yl)methyl)pyridin-2(1H)-one] | 1000 to 5000 nM |
| O=c1cc(-c2ccc3[nH]nc(-c4ccc5ncnn5c4)c3c2)ccn1[C@H](CO)c1cc(F)cc(Br)c1 [Example 128, (S)-4-(3-([1,2,4]triazolo[1,5-a]pyridin-6-yl)-1H-indazol-5-yl)-1-(1-(3-bromo-5-fluorophenyl)-2-hydroxyethyl)pyridin-2(1H)-one] | ≤ 500 nM |
| O=c1cc(-c2ccc3[nH]nc(-c4ccc5nccn5c4)c3c2)ccn1[C@H](CO)c1cc(F)cc(Br)c1 [Example 129, (S)-1-(1-(3-bromo-5-fluorophenyl)-2-hydroxyethyl)-4-(3-(imidazo[1,2-a]pyridin-6-yl)-1H-indazol-5-yl)pyridin-2(1H)-one] | ≤ 500 nM |
| Cc1nc2ccc(-c3n[nH]c4ccc(-c5ccn([C@H](CO)c6cc(F)cc(Br)c6)c(=O)c5)cc34)cn2n1 [Example 130, (S)-1-(1-(3-bromo-5-fluorophenyl)-2-hydroxyethyl)-4-(3-(2-methyl-[1,2,4]triazolo[1,5-a]pyridin-6-yl)-1H-indazol-5-yl)pyridin-2(1H)-one] | ≤ 500 nM |
| Cc1cc(-c2n[nH]c3ccc(-c4ccn(Cc5ccc(C(F)(F)F)nc5)c(=O)c4)cc23)ccn1 [Example 131, 4-(3-(2-methylpyridin-4-yl)-1H-indazol-5-yl)-1-((6-(trifluoromethyl)pyridin-3-yl)methyl)pyridin-2(1H)-one] | 1000 to 5000 nM |
| CCc1cc(-c2n[nH]c3ccc(-c4ccn(Cc5ccnc(C(F)(F)F)c5)c(=O)c4)cc23)ccn1 [Example 132, 4-(3-(2-ethylpyridin-4-yl)-1H-indazol-5-yl)-1-((2-(trifluoromethyl)pyridin-4-yl)methyl)pyridin-2(1H)-one] | 1000 to 5000 nM |
| O=c1cc(-c2ccc3[nH]nc(-c4ccnc(C5CC5)c4)c3c2)ccn1Cc1ccnc(C(F)(F)F)c1 [Example 133, 4-(3-(2-cyclopropylpyridin-4-yl)-1H-indazol-5-yl)-1-((2-(trifluoromethyl)pyridin-4-yl)methyl)pyridin-2(1H)-one] | 1000 to 5000 nM |
| Cc1cc(-c2n[nH]c3ccc(-c4ccn([C@H](CO)c5ccnc(C(F)(F)F)c5)c(=O)c4)cc23)ccn1 [Example 134, (S)-1-(2-hydroxy-1-(2-(trifluoromethyl)pyridin-4-yl)ethyl)-4-(3-(2-methylpyridin-4-yl)-1H-indazol-5-yl)pyridin-2(1H)-one] | 1000 to 5000 nM |
| Cc1cc(-c2n[nH]c3ccc(-c4ccn(Cc5nc(C(F)(F)F)cs5)c(=O)c4)cc23)ccn1 [Example 135] | 1000 to 5000 nM |
| Cc1cc(-c2n[nH]c3ccc(-c4ccn(Cc5cccnc5C(F)(F)F)c(=O)c4)cc23)ccn1 [Example 136, 4-(3-(2-methylpyridin-4-yl)-1H-indazol-5-yl)-1-((2-(trifluoromethyl)pyridin-3-yl)methyl)pyridin-2(1H)-one] | 1000 to 5000 nM |
| Cc1cc(-c2n[nH]c3ccc(-c4ccn(Cc5cccc(C(F)(F)F)n5)c(=O)c4)cc23)ccn1 [Example 137, 4-(3-(2-methylpyridin-4-yl)-1H-indazol-5-yl)-1-((6-(trifluoromethyl)pyridin-2-yl)methyl)pyridin-2(1H)-one] | 500 to 1000 nM |
| Cc1nn(C)cc1-c1n[nH]c2ccc(-c3ccn([C@H](CO)c4cc(F)cc(Br)c4)c(=O)c3)cc12 [Example 138, (S)-1-(1-(3-bromo-5-fluorophenyl)-2-hydroxyethyl)-4-(3-(1,3-dimethyl-1H-pyrazol-4-yl)-1H-indazol-5-yl)pyridin-2(1H)-one] | 500 to 1000 nM |
| Cc1cc(-c2n[nH]c3ccc(-c4ccn(Cc5cc(C(F)(F)F)no5)c(=O)c4)cc23)ccn1 [Example 139, 4-(3-(2-methylpyridin-4-yl)-1H-indazol-5-yl)-1-((3-(trifluoromethyl)isoxazol-5-yl)methyl)pyridin-2(1H)-one] | 1000 to 5000 nM |
| CNc1n[nH]c2ccc(-c3ccn([C@H](CO)c4cc(F)cc(Br)c4)c(=O)c3)cc12 [Example 141, (S)-1-(1-(3-bromo-5-fluorophenyl)-2-hydroxyethyl)-4-(3-(methylamino)-1H-indazol-5-yl)pyridin-2(1H)-one] | 1000 to 5000 nM |
| O=c1cc(-c2ccc3[nH]nc(C4CCOC4)c3c2)ccn1[C@H](CO)c1cc(F)cc(Br)c1 (stereo partly drawn) [Example 150, 1-((S)-1-(3-bromo-5-fluorophenyl)-2-hydroxyethyl)-4-(3-(tetrahydrofuran-3-yl)-1H-indazol-5-yl)pyridin-2(1H)-one] | 1000 to 5000 nM |
| O=c1cc(-c2ccc3[nH]nc(N4CCC(O)C4)c3c2)ccn1[C@H](CO)c1cc(F)cc(Br)c1 (stereo partly drawn) [Example 151, 1-((S)-1-(3-bromo-5-fluorophenyl)-2-hydroxyethyl)-4-(3-(3-hydroxypyrrolidin-1-yl)-1H-indazol-5-yl)pyridin-2(1H)-one] | 1000 to 5000 nM |

Same assay, conditions: IC50 values of growth inhibition in Colo 205 cells; 72 hours

| Compound | IC50 |
| --- | --- |
| Cc1cc(-c2n[nH]c3ccc(-c4ccn([C@@H](C)c5ccnc(C(F)(F)F)c5)c(=O)c4)cc23)ccn1 [Example 142A, (S)-4-(3-(2-methylpyridin-4-yl)-1H-indazol-5-yl)-1-(1-(2-(trifluoromethyl)pyridin-4-v1)ethyl)pyridin-2(1H)-one] | 1000 to 5000 nM |

— patent US11242334B2, “Heterocyclic compounds as kinase inhibitors, compositions comprising the heterocyclic compound, and methods of use thereof” (JS INNOPHARM (SHANGHAI) LTD, priority 2017, dated 2022)
